{
  "source": "patent US9320724B2",
  "about": "“Method of improving cognition and increasing dendritic complexity in humans with down syndrome and compositions therefor” (priority 2013, dated 2016)",
  "key": {"Ts65Dn and 2N mice [1]": {"test_system": "Ts65Dn and 2N mice", "test": "Cardiovascular and respiratory system monitoring (MouseOx vital signs monitor)", "details": "nadolol 5 mg/kg IP, 1 h later formoterol 2 mg/kg IP or saline, tested 4 h later", "method": "(§1) Pharmacological Treatments. […] For details on methods of drug injections see FIG. 16.\nCardiovascular and respiratory system monitoring. Peripheral effects of fomoterol were assessed using MOUSEOX® Small Animal Vital Signs Monitor (Starr). The monitor was attached to a collar clip with an LED sensor to enable recordings in free-moving mice. To minimize stress before recording, the collar clip was attached to each animal. After five minutes, heart rate, respiratory rate, and oxygen saturation were recorded using MOUSEOX® 6.3.13 for 10 minutes.\n(§2) FIG. 16. Strategy used for performing IP injections of βAR agonist and antagonist and behavioral testing. […] Four hours later, the mice were tested for cardiovascular and respiratory system effects, open field activity, or fear conditioning. The process started with open field-testing on day 1 followed by fear conditioning on days 4 (training) and 5 (testing)."}, "Ts65Dn and 2N mice [2]": {"test_system": "Ts65Dn and 2N mice", "test": "Fear conditioning (contextual learning)", "assay_type": "in vivo, mouse", "details": "context test one day after training, nadolol 5 mg/kg IP then formoterol 2 mg/kg IP or saline", "method": "as §1\nb) Fear Conditioning. […] The fear conditioning tests were done using four FreezeScan chambers (Clever Sys) on days 4 and 5 after the start of the open field-testing. […] Four hours later, the mice were placed in the fear-conditioning chamber and their baseline activity was recorded for three minutes. At the end of this period, each mouse was exposed to five shocks (2 seconds each, 0.5 mA) with inter-trial intervals of 80 seconds. Twenty-four hours later, the mice were injected again, similar to the Training Day, and returned to the same fear-conditioning chamber for five minutes and their activity was recorded. Freezing was defined as a lack of movement for 3 frames (29 frames/s).\nas §2"}, "[3]": {"details": "oral administration in rodents; cited from earlier work"}, "[4]": {"details": "in vivo; cited from earlier work"}, "Ts65Dn mice [5]": {"test_system": "Ts65Dn mice", "details": "cited from earlier work; for contextual learning: earlier study"}, "Fgf2 [6]": {"test_system": "Fgf2", "details": "rats; IP injections; cited from earlier work"}, "Ts65Dn mice [7]": {"test_system": "Ts65Dn mice", "details": "cited from earlier work"}, "Ts65Dn and 2N mice [8]": {"test_system": "Ts65Dn and 2N mice", "test": "Open field activity", "assay_type": "in vivo, mouse", "details": "nadolol 5 mg/kg IP then formoterol 2 mg/kg IP or saline; for total distance travelled: in 10 minutes", "method": "as §1\na) Open Field Activity. Prior to testing, the mice were handled for five days for habituation. […] Four hours later, the mice were tested for open field activity. The open field arena (450 mm×450 mm) had visual cues on the walls. […] The arena was cleaned after each session. The velocity, total distance traveled, and the time spent in the peripheral 50% versus central 50% area of the arena (bouts) for each mouse were quantified and analyzed using TopScan Lite (Clever Sys).\nas §2"}, "synaptophysin": {"test_system": "synaptophysin", "test": "Synaptophysin immunostaining of the DG (synaptic density)", "assay_type": "in vivo, mouse", "details": "daily IP nadolol alone or nadolol with formoterol until day 16", "method": "(§3) At the end of this period, all mice were anesthetized, perfused, and the brain was extracted. The right hemisphere from each brain was fixed in 4% paraformaldehyde followed by dehydration. The methodology for staining has been published before. […] The left hemisphere was flash frozen and used for gene expression studies.\n(§4) Before all staining(s), to inhibit endogenous peroxidase, 70-μm-thick floating sections were pre-incubated in 0.5% H2O2 in 50% methanol for 30 minutes at RT. This was followed by pre-incubating the sections in 0.1% triton and 10% normal serums(s) (NS, Vector Labs) for 1 hour at RT. This was followed by incubation in primary antibodies overnight at RT. […] For DCX staining the sections were kept in pre-warmed (37° C.) for 30 minutes before staining. This was followed by incubation in secondary anti-bodies that were diluted in 0.1% triton and corresponding 1% NS. The sections were then incubated in ABC Lite (1:1000, Vector) for 1 hour. Staining was terminated by incubating in DAB (0.66 mg/ml in tris-HCl) for 5-10 minutes. Finally, the sections were washed, dehydrated and mounted.\n(§5) FIG. 16. Strategy used for performing IP injections of βAR agonist and antagonist and behavioral testing. […] Four hours later, the mice were tested for cardiovascular and respiratory system effects, open field activity, or fear conditioning. […]"}, "c-Fos": {"test_system": "c-Fos", "test": "c-Fos immunostaining of the DGC layer", "assay_type": "in vivo, mouse", "details": "daily IP nadolol alone or nadolol with formoterol until day 16", "method": "as §3, §4, §5"}, "BrdU-positive profiles": {"test_system": "BrdU-positive profiles", "test": "BrdU cell count in the DG (cell proliferation)", "assay_type": "in vivo, mouse", "details": "15 days of treatment, then BrdU 50 mg/kg IP daily for 5 days", "method": "To identify proliferating cells, we used 5-bromo-2′-deoxyuridine (BrdU, Sigma). It was dissolved in PBS, filtered, and kept at 4° C. till use. After 15 days of treatment, each mouse was injected IP daily (50 mg/kg) with BrdU solution for 5 days. Thereafter, on day 21, all mice were anesthetized and transcardially perfused with ice-cold saline. The entire brain was immediately removed and the two hemispheres were separated. The left hemisphere was fixed overnight, cut, and stored. […] This was followed by incubation of sections in ABC.\nStereo-Investigator (MBF) was used to quantify the total number of BrdU-positive cells in the entire septo-temporal extent of DG. Following the outlining of the DG area at 4×, each positive profile was identified using a 100× oil objective. Unbiased stereological methods were used to determine the total number of BrdU-immunoreactive-profiles throughout the hippocampus. A Nanozoomer system (Hamamatsu 2.0 RS) was used to capture images of the entire slide in each case. High magnification images were captured using the Nanozoomer and stored."}, "DCX-positive neurons": {"test_system": "DCX-positive neurons", "test": "DCX immunostaining: number and dendritic branching of newly born DGCs", "assay_type": "in vivo, mouse", "details": "nadolol alone or nadolol with formoterol", "method": "as §3, §4"}, "Fgf2 [9]": {"test_system": "Fgf2", "test": "Fgf2 gene expression, real-time PCR in DG micro-punches", "assay_type": "in vivo", "details": "normalized to B-actin and Gapdh and to a 2N mouse"}},
  "data": [
    {"smiles": "COc1ccc(CC(C)NCC(O)c2ccc(O)c(NC=O)c2)cc1", "note": "(stereo not drawn) [formoterol]", "values": [
      {"measurement": "O2 saturation", "setting": "Ts65Dn and 2N mice [1]; 2N mice", "result": "93.221±0.36", "unit": "%"},
      {"measurement": "heart rate", "setting": "Ts65Dn and 2N mice [1]; 2N mice", "result": "638.440±44.77", "unit": "pulse per minute"},
      {"measurement": "O2 saturation", "setting": "Ts65Dn and 2N mice [1]; Ts65Dn mice", "result": "92.205±1.31", "unit": "%"},
      {"measurement": "heart rate", "setting": "Ts65Dn and 2N mice [1]; Ts65Dn mice", "result": "672.620±36.58", "unit": "pulse per minute"},
      {"measurement": "respiratory rate", "setting": "Ts65Dn and 2N mice [1]; Ts65Dn mice", "result": "189.090±8.40", "unit": "per minute"},
      {"measurement": "duration of freezing", "setting": "Ts65Dn and 2N mice [2]; Ts65Dn mice", "result": "34.040±3.66", "unit": "seconds per minute"},
      {"measurement": "time to reach the brain", "setting": "[3]", "result": "≤ 30", "unit": "min"},
      {"measurement": "crossing of the blood brain barrier", "setting": "[4]", "result": "cross the blood brain barrier (BBB) and reach the brain"}
    ]},
    {"smiles": "N[C@H](C(=O)O)[C@H](O)c1ccc(O)c(O)c1", "note": "[L-DOPS, L-threo-3,4-dihdroxyphenylserine]", "values": [
      {"measurement": "contextual learning", "setting": "Ts65Dn mice [5]", "result": "restored contextual learning"}
    ]},
    {"smiles": "O=C(NCCNCC(O)COc1ccc(O)cc1)N1CCOCC1", "note": "(stereo not drawn) [xamoterol]", "values": [
      {"measurement": "contextual learning", "setting": "Ts65Dn mice [5]", "result": "restored contextual learning"},
      {"measurement": "spatial learning and hyperactivity", "setting": "Ts65Dn mice [5]; later studies", "result": "did not improve spatial learning and/or reduce hyperactivity"}
    ]},
    {"smiles": "CC(C)(C)NCC(O)c1cc(Cl)c(N)c(Cl)c1", "note": "(stereo not drawn) [clenbuterol]", "values": [
      {"measurement": "Fgf2 mRNA levels in the hippocampus", "setting": "Fgf2 [6]", "result": "significant increase"}
    ]},
    {"smiles": "CNCCC(Oc1ccc(C(F)(F)F)cc1)c1ccccc1", "note": "(stereo not drawn) [fluoxetine]", "values": [
      {"measurement": "neurogenesis", "setting": "Ts65Dn mice [7]", "result": "promote neurogenesis"}
    ]},
    {"smiles": "CC(C)(C)NCC(O)COc1cccc2c1CC(O)C(O)C2", "note": "(stereo not drawn) [nadolol]", "values": [
      {"measurement": "duration of freezing", "setting": "Ts65Dn and 2N mice [2]; 2N mice", "result": "46.761±3.09", "unit": "seconds per minute"},
      {"measurement": "duration of freezing", "setting": "Ts65Dn and 2N mice [2]; Ts65Dn mice", "result": "19.28±4.79", "unit": "seconds per minute"},
      {"measurement": "total distance travelled", "setting": "Ts65Dn and 2N mice [8]; 2N mice", "result": "18.233±1.48", "unit": "meters"},
      {"measurement": "number of bouts, central 50% area", "setting": "Ts65Dn and 2N mice [8]; 2N mice", "result": "39.46±4.96"},
      {"measurement": "number of bouts, peripheral 50% area", "setting": "Ts65Dn and 2N mice [8]; 2N mice", "result": "45.00±5.68"},
      {"measurement": "mean velocity in the open field arena", "setting": "Ts65Dn and 2N mice [8]; 2N mice, 4 h later", "result": "31.465±2.74", "unit": "mm/s"},
      {"measurement": "total distance travelled", "setting": "Ts65Dn and 2N mice [8]; Ts65Dn mice", "result": "30.424±2.70", "unit": "meters"},
      {"measurement": "number of bouts, central 50% area", "setting": "Ts65Dn and 2N mice [8]; Ts65Dn mice", "result": "60.25±4.95"},
      {"measurement": "percentage of area covered by synaptophysin staining in the DG", "setting": "synaptophysin; 2N mice", "result": "27.40±11.00", "unit": "%"},
      {"measurement": "percentage of area covered by synaptophysin staining in the DG", "setting": "synaptophysin; Ts65Dn mice", "result": "21.50±1.00", "unit": "%"},
      {"measurement": "density of c-Fos-positive DGCs", "setting": "c-Fos; 2N mice", "result": "179.30±22.4", "unit": "cells/mm^2"},
      {"measurement": "density of c-Fos-positive DGCs", "setting": "c-Fos; Ts65Dn mice", "result": "109.42±13.0", "unit": "cells/mm^2"},
      {"measurement": "total number of BrdU-positive profiles in the DG", "setting": "BrdU-positive profiles; 2N mice", "result": "3,161.390±900"},
      {"measurement": "total number of BrdU-positive profiles in the DG", "setting": "BrdU-positive profiles; Ts65Dn mice", "result": "2,133.290±491"},
      {"measurement": "number of DCX-positive DGCs", "setting": "DCX-positive neurons; 2N mice", "result": "5391.36±744"},
      {"measurement": "order of dendritic branching of DCX-positive neurons", "setting": "DCX-positive neurons; 2N mice", "result": "2.05±0.12"},
      {"measurement": "number of DCX-positive DGCs", "setting": "DCX-positive neurons; Ts65Dn mice", "result": "2837.79±500"},
      {"measurement": "order of dendritic branching of DCX-positive neurons", "setting": "DCX-positive neurons; Ts65Dn mice", "result": "1.58±0.08"},
      {"measurement": "Fgf2 gene expression in DG micro-punches", "setting": "Fgf2 [9]; 2N mice", "result": "1.000±0.41"},
      {"measurement": "Fgf2 gene expression in DG micro-punches", "setting": "Fgf2 [9]; Ts65Dn mice", "result": "0.344±0.07"}
    ]}
  ]
}
